# Laboratory results reported in patent publication US20230141403A1 (Hoffmann-La Roche Inc., priority 2020, published 2023).
# Counter-ions that a name gives are not always drawn.
# Tested on: Acinetobacter baumannii ATCC17961
# Assay: Antimicrobial susceptibility testing: 90% growth inhibitory concentration (IC90) determination
# Assay type: cell-based
# Conditions: 90% growth inhibitory concentration; Iso-Sensitest broth, optical density at 600 nm over 16h, 35±2° C.; read-out: AB ATCC 17961 IC90
# Description: Antimicrobial Susceptibility Testing:
# 90% Growth Inhibitory Concentration (IC90) Determination
# The in vitro antimicrobial activity of the compounds was determined according to the following procedure:
# The assay used a 10-points Iso-Sensitest broth medium to measure quantitatively the in vitro activity of the compounds against Acinetobacter baumannii ATCC17961 or ATCC17978.
# Stock compounds in DMSO were serially twofold diluted (e.g. range from 50 to 0.097 μM final concentration) in 384 wells microtiter plates and inoculated with 49 μl the bacterial suspension in Iso-Sensitest medium to have a final cell concentration of ˜5×10^(5) CFU/ml in a final volume/well of 50 ul/well. Microtiter plates were incubated at 35±2° C.
# Bacterial cell growth was determined with the measurement of optical density at λ=600 nm each 20 minutes over a time course of 16h. Growth inhibition was calculated during the logarithmic growth of the bacterial cells with determination of the concentration inhibiting 50% (IC50) and 90% (IC90) of the growth.
# Table 2 provides the 90% growth inhibitory concentrations (IC90) in micromoles per liter of the compounds of present invention obtained against the strain Acinetobacter baumannii ATCC17961.
row,IC90 [µM],Structure (SMILES)
1,0.17,"CCS(=O)(=NC)c1ccc(Nc2nccn3c(-c4ccc(OC)c(F)c4F)cnc23)cc1Cl (stereo not shown) [Example 24, (2-chloro-4-((3-(2,3-difluoro-4-methoxyphenyl)imidazo[1,2-a]pyrazin-s-yl)amino)phenyl)(ethyl)(methylimino)-l6-sulfanone]"
2,0.16,"CN=S(C)(=O)c1ccc(Nc2nccn3c(-c4ccc(OC)c(F)c4F)cnc23)cc1C (stereo not shown) [Example 66, 3-(2,3-difluoro-4-methoxyphenyl)-N-(4-(N,S-dimethylsulfonimidoyl)-3-methylphenyl)imidazo[1,2-a]pyrazin-8-amine]"
3,0.084,"CN=S(C)(=O)c1ccc(Nc2nccn3c(-c4ccc(OC)c(F)c4F)cnc23)cc1C (stereo not shown) [Example 22, 3-(2,3-difluoro-4-methoxy-phenyl)-N-[4-(N,S-dimethylsulfonimidoyl)-3-methyl-phenyl]imidazo[l,2-a]pyrazin-8-amine]"
4,0.17,"COc1ccc(-c2cnc3c(Nc4ccc(S(C)(=O)=NCCCNC(=O)[C@H]5C[C@H](O)CN5)c(C)c4)nccn23)c(F)c1F (mixture of isomers) [Example 32, rac-(2R,4S)—N-(3-(((4-((3-(2,3-difluoro-4-methoxyphenyl)imidazo[1,2-a]pyrazin-8-yl)amino)-2-methylphenyl)(methyl)oxo)-l6-sulfaneylidene)amino)propyl)-4-hydroxypyrrolidine-2-carboxamide dihydrochloride]"

# Same assay, conditions: Acinetobacter baumannii, ATCC17961, 16 h, 90% growth inhibitory concentration; Iso-Sensitest broth, optical density at 600 nm over 16h, 35±2° C.; read-out: AB ATCC 17961 IC90
row,Structure (SMILES),IC90 [µM]
1,"O=C1NCCN1c1ccc(Nc2nccn3c(-c4ccc(OC(F)F)cc4)cnc23)cc1 [Example 3, 1-[4-[[3-[4-(difluoromethoxy)phenyl]imidazo[1,2-a]pyrazin-8-yl]amino]phenyl]imidazolidin-2-one]",0.72
2,"NCCCCC1CC(=O)N(c2ccc(Nc3nccn4c(-c5ccc(OC(F)F)cc5)cnc34)cc2)C1 (stereo not shown) [Example 63, 4-(4-aminobutyl)-1-(4-((3-(4-(difluoromethoxy)phenyl)imidazo[1,2-a]pyrazin-8-yl)amino)phenyl)pyrrolidin-2-one]",0.036
3,"COc1ccc(-c2cnc3c(Nc4ccc([S@@](C)(=O)=NCCCN)c(C)c4)nccn23)c(F)c1F [Example 28, (+)-((3-aminopropyl)imino) (4-((3-(2,3-difluoro-4-methoxyphenyl)imidazo[1,2-a]pyrazin-8-yl)amino)-2-methylphenyl) (methyl)-16-sulfanone]",0.048
4,COc1ccc(-c2cnc3c(Nc4ccc(S(=O)(=O)NCCOCCN(C)C)c(Cl)c4)nccn23)c(F)c1F [Example 97],0.18
5,"COc1ccc(-c2cnc3c(Nc4ccc(N5CCCC5=O)cc4)nccn23)cc1F [Example 48, 1-(4-((3-(3-fluoro-4-methoxyphenyl)imidazo[1,2-a]pyrazin-8-yl)amino)phenyl)pyrrolidin-2-one]",0.076
6,"CN=S(C)(=O)c1ccc(Nc2nccn3c(-c4ccc(OCC#N)c(F)c4F)cnc23)cc1C (stereo not shown) [Example 25, 2-(4-(8-((4-(N,S-dimethylsulfonimidoyl)-3-methylphenyl)amino)imidazo[1,2-a]pyrazin-3-yl)-2,3-difluorophenoxy) acetonitrile]",0.048
7,"CN=S(=O)(c1ccc(Nc2nccn3c(-c4ccc(OC)c(F)c4F)cnc23)cc1C)N(C)C (stereo not drawn) [Example 31, 3-(2,3-difluoro-4-methoxy-phenyl)-N-[4-[S-(dimethylamino)-N-methyl-sulfonimidoyl]-3-methyl-phenyl]imidazo[1,2-a]pyrazin-8-amine]",0.5
8,"CN=S(C)(=O)c1ccc(Nc2nccn3c(-c4ccc(OC)c(F)c4F)cnc23)cc1Cl (stereo not shown) [Example 23, N-[3-chloro-4-(N,S-dimethylsulfonimidoyl)phenyl]-3-(2,3-difluoro-4-methoxy-phenyl)imidazo[1,2-a]pyrazin-8-amine]",0.11
9,"NCCOCC1CC(=O)N(c2ccc(Nc3nccn4c(-c5ccc(OC(F)F)cc5)cnc34)cc2)C1 (stereo not shown) [Example 64, 4-((2-aminoethoxy)methyl)-1-(4-((3-(4-(difluoromethoxy)phenyl)imidazo[1,2-a]pyrazin-8-yl)amino)phenyl)pyrrolidin-2-one]",0.12
10,"COc1ccc(-c2cnc3c(Nc4ccc(NC(C)=O)c(Cl)c4)nccn23)cc1 [Example 39, N-(2-chloro-4-((3-(4-methoxyphenyl)imidazo[1,2-a]pyrazin-8-yl)amino)phenyl)acetamide]",0.1
11,"COc1ccc(-c2cnc3c(Nc4ccc([S@](C)(=O)=NCCCNC(=O)[C@@H]5C[C@@H](O)CN5)c(C)c4)nccn23)c(F)c1F [Example 29, (2S,4R)—N-(3-(((−)-(4-((3-(2,3-difluoro-4-methoxyphenyl)imidazo[1,2-a]pyrazin-s-yl)amino)-2-methylphenyl)(methyl)(oxo)-l6-sulfaneylidene)amino)propyl)-4-hydroxypyrrolidine-2-carboxamide]",0.18
12,"CN=S(C)(=O)c1ccc(Nc2nccn3c(-c4ccc(OC)c(F)c4F)cnc23)cc1 (stereo not shown) [Example 69, 3-(2,3-difluoro-4-methoxyphenyl)-N-(4-(N,S-dimethylsulfonimidoyl)phenyl)imidazo[1,2-a]pyrazin-8-amine]",0.2

# The remaining lines, values ahead:
row,IC90 [µM],Structure (SMILES)
1,0.5,"CCc1cc(Nc2nccn3c(-c4ccc(OC)c(F)c4F)cnc23)ccc1S(=O)(=O)N1CCNCC1 [Example 103, 3-(2,3-difluoro-4-methoxyphenyl)-N-(3-ethyl-4-(piperazin-1-ylsulfonyl)phenyl) imidazo[1,2-a]pyrazin-8-amine hydrochloride]"
2,0.33,"CCc1cc(Nc2nccn3c(-c4ccc(OC)c(F)c4F)cnc23)ccc1S(=O)(=O)N1CCN(C(=O)C[N+](C)(C)C)CC1 [Example 110, 2-(4-((4-((3-(2,3-difluoro-4-methoxyphenyl)imidazo[1,2-a]pyrazin-8-yl)amino)-2-ethylphenyl)sulfonyl)piperazin-1-yl)-N,N,N-trimethyl-2-oxoethan-1-aminium iodide]"
3,0.31,"CCc1cc(Nc2nccn3c(-c4ccc(OC)c(F)c4F)cnc23)ccc1S(=O)(=O)N1CCN(C(=O)[C@@H]2CCCN2)CC1 [Example 105, (S)(4-(4-((3-(2,3-difluoro-4-methoyphenyl)imidazo[1,2-a]pyrazin-8-yl)amino)-2-ethylphenyl)sulfonyl)piperazin-1-yl)(pyrrolidin-2-yl)methanone hydrochloride]"
4,0.49,"COc1ccc(-c2cnc3c(Nc4ccc(N5CCC(CN)CC5)c(Cl)c4)nccn23)c(F)c1F [Example 115, N-(4-(4-(aminomethyl)piperidin-1-yl)-3-chlorophenyl)-3-(2,3-difluoro-4-methoxyphenyl) imidazo [1,2-a]pyrazin-8-amine hydrochloride]"
5,0.81,"CCc1cc(Nc2nccn3c(-c4ccc(OC)c(F)c4F)cnc23)ccc1N1CCC(CN)CC1 [Example 114, N-(4-(4-(aminomethyl)piperidin-1-yl)-3-ethylphenyl)-3-(2,3-difluoro-4-methoxyphenyl) imidazo [1,2-a]pyrazin-8-amine hydrochloride]"
6,0.28,"COc1ccc(-c2cnc3c(Nc4ccc(S(=O)(=O)NCCOCCN(C)C)c(C)c4)nccn23)c(F)c1F [Example 99, 4-((3-(2,3-difluoro-4-methoxyphenyl)imidazo[1,2-a]pyrazin-8-yl)amino)-N-(2-(2-(dimethylamino)ethoxy)ethyl)-methylbenzene sulfonamide]"
7,0.2,"CCc1cc(Nc2nccn3c(-c4ccc(OC)c(F)c4F)cnc23)ccc1S(=O)(=O)N1CCN(C(=O)[C@@H]2CCNC2)CC1 [Example 107, (R)-(4-(4-((3-(2,3-difluoro-4-methoxyphenyl)imidazo[1,2-a]pyrazin-8-yl)amino)-2-ethylphenyl)sulfonyl) piperazin-1-yl)(pyrrolidin-3-yl)methanone hydrochloride]"
8,0.58,"CCc1cc(Nc2nccn3c(-c4ccc(OC)c(F)c4F)cnc23)ccc1C[N+](C)(C)C [Example 123, [4-[[3-(2,3-difluoro-4-methoxy-phenyl)imidazo[1,2-a]pyrazin-8-yl]amino]-2-ethyl-phenyl]methyl-trimethyl-ammonium]"
9,0.12,"COc1ccc(-c2cnc3c(Nc4ccc(Cn5ccnc5)c(C)c4)nccn23)c(F)c1F [Example 118, 3-(2,3-difluoro-4-methoxy-phenyl)-N-[4-(imidazol-1-ylmethyl)-3-methyl-phenyl]imidazo[1,2-a]pyrazin-8-amine]"

# Same assay, conditions: Acinetobacter baumannii, ATCC17961, 16 h, read-out: AB ATCC 17961 IC90 (uM)
row,Structure (SMILES),IC90 [µM]
1,"COc1ccc(-c2cnc3c(Nc4ccc(S(C)(=O)=NCCCN)cc4)nccn23)c(F)c1F (stereo not shown) [Example 68, N-[4-[N-(3-aminopropyl)-S-methyl-sulfonimidoyl]phenyl]-3-(2,3-difluoro-4-methoxy-phenyl)imidazo[1,2-a]pyrazin-8-amine; formic acid]",0.43
2,"CCc1cc(Nc2nccn3c(-c4ccc(OC)c(F)c4F)cnc23)ccc1S(C)(=O)=NCCCN (stereo not shown) [Example 70, N-[4-[N-(3-aminopropyl)-S-methyl-sulfonimidoyl]-3-ethyl-phenyl]-3-(2,3-difluoro-4-methoxy-phenyl)imidazo[1,2-a]pyrazin-8-amine; formic acid]",0.19
3,"COc1ccc(-c2cnc3c(Nc4ccc(N5CCC(CN)CC5)cc4)nccn23)c(F)c1F [Example 112, N-(4-(4-(aminomethyl)piperidin-1-yl)phenyl)-3-(2,3-difluoro-4-methoxyphenyl)imidazo[1,2-a]pyrazin-8-amine hydrochloride]",0.56
